Laboratory results as given in ChEMBL document CHEMBL1201862, “PubChem BioAssay data set” (2004).
Active and inactive are the calls of the source.

Tests used:
Cytochrome P450 2D6 = Cytochrome P450 2D6 (Homo sapiens, UniProt P10635);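 also: CYP2D6 member of a cytochrome P450 panel assay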
Cytochrome P450 2C19 = Cytochrome P450 2C19 (Homo sapiens, UniProt P33261); experiment: Cytochrome panel assay with activity outcomes. Panel member name: p450-cyp2c19 Compounds with AC50 equal or less than 10 uM are considered active; assay type: functional
Sequence of Cytochrome P450 2C19 (P33261 whole entry): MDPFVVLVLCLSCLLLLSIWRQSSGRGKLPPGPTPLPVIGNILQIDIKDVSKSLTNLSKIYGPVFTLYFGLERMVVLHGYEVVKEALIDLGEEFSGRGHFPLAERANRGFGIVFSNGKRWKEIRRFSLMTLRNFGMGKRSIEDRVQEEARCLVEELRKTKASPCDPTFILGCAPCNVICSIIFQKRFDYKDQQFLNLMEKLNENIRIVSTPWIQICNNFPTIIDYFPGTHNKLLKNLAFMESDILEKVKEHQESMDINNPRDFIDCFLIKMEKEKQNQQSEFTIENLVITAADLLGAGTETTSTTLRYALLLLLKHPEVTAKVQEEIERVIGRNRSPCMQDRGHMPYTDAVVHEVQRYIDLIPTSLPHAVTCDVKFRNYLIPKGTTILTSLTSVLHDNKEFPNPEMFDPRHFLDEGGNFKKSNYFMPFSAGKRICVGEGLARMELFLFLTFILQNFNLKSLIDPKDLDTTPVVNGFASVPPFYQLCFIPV

Cytochrome P450 3A4 = Cytochrome P450 3A4 (Homo sapiens, UniProt P08684);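 also: CYP3A4 tested as one member of a cytochrome P450 panel screen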
Sequence of Cytochrome P450 3A4 (P08684 whole entry): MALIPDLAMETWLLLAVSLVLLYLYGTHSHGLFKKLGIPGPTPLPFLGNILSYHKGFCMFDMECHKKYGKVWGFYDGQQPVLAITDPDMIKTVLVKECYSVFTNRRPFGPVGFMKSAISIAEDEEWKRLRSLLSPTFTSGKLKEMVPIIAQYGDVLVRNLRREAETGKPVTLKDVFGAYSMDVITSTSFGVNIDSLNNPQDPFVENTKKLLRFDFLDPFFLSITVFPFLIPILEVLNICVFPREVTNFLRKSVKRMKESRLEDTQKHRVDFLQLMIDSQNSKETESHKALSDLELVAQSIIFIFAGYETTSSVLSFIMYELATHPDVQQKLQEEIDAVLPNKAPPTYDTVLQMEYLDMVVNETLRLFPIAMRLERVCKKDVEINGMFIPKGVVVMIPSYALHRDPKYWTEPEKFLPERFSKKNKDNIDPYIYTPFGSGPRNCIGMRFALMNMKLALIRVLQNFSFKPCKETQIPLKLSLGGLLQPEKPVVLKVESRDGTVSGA

[1] = viability of uninfected HEp-2 cells – cell-based, HTS, cytotoxicity control for RSV inhibitor project, dose response (AID 2410); assay type: functional; details: human respiratory syncytial virus
[2] = microbe, parasite or virus in culture; assay type: functional; details: Mycobacterium tuberculosis
[3] = Luminescence Cell-Based Dose Response HTS to Identify Inhibitors of 5'UTR Stem-Loop Driven Prion Protein mRNA Translation in H4 Neuroglioblastoma Cells. [Related pubchem assays: 1827 (Project Summary), 1813 (Primary HTS)]; assay type: functional
[4] = luciferase reporter signal suppression in cells – H4 neuroglioma cells, luminescence, dose response (AID 1990); assay type: functional, cell-based
[5] = alpha-synuclein stem-loop luciferase translation blockers – H4 neuroglioma cells, luminescence, confirmation (AID 1988); assay type: functional, cell-based
INS1 = experiment: INS-1E survival protection against cytokine death – cell-based, luminescence, retest, dose response (AID 449756); assay type: functional; details: Rattus norvegicus;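 also: cell death triggered by IL-1 beta plus TNF-alpha plus IFN-gamma mixture; protective hits raise ATP signal compared with cytokine alone wells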
[6] = fluconazole-exposed Candida albicans growth modulators – fluorescence, retest, confirmation (AID 2467); assay type: functional, cell-based
[7] = NIH-3T3 fibroblast cytotoxicity, dose response, cytotoxicity control, cell-based, fluorescence, Alamar Blue, secondary assay (AID 2327); assay type: functional;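 also: NIH-3T3 mouse fibroblasts cultured with fluconazole at 8 µg/mL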
[8] = viability of HCT116 lacking mutant beta-catenin – cell-based, human colon tumor, dose response (AID 1045); assay type: functional;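 also: HCT116 colon tumor cells with beta catenin knocked out; cells exposed to compound for 60 hours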
[9] = Luminescence Cell-Based Dose Response HTS to Identify Activators of Luciferase Translation or Activity in H4 […] Cells. [Related pubchem assays: 1829 (Project Summary), 1814 (Primary HTS)]; assay type: functional
H4 = experiment: Luminescence Cell-Based Dose Response HTS to Identify Activators of 5'UTR Stem-Loop Driven Prion Protein mRNA Translation in H4 Neuroglioblastoma Cells. [Related pubchem assays: 1829 (Project Summary), 1814 (Primary HTS)]; assay type: functional; details: Homo sapiens
[10] = Luminescence Cell-Based Dose Retest to Confirm Inhibitors of Cancer Stem Cells. [Related pubchem assays (depositor defined):AID2717, AID2721]; assay type: functional; details: Homo sapiens
Cytochrome P450 1A2 = biological target: T1, Cytochrome P450 1A2 (Homo sapiens, UniProt P05177);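 also: PubChem cytochrome P450 panel assay, CYP1A2 panel member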
T1 sequence (P05177 whole entry): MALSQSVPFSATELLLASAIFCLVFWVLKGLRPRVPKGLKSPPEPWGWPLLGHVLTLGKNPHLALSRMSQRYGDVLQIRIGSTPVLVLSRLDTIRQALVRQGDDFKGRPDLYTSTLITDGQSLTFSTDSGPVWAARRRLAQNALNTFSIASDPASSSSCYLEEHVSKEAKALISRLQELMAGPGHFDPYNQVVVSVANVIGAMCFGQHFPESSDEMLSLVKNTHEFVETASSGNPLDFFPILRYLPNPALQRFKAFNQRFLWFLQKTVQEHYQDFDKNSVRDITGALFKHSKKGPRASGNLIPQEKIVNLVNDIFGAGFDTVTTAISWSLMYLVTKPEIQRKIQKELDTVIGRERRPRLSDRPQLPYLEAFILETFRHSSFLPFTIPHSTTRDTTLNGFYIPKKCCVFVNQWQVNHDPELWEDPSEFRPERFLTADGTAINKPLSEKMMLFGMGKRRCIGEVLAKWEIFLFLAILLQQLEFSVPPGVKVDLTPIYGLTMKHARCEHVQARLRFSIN

[11] = system: Streptococcus sp. 'group A'; experiment: Streptococcus pyogenes SK(-)GAS viability under kanamycin – luminescence, BacTiterGlo, confirmation, counter-screen for streptokinase expression inhibitor project, dose response (AID 1900); assay type: functional, organism-based
Streptococcus = experiment: GAS UMAA2166 growth inhibition – luminescence, BacTiterGlo, counter-screen for streptokinase expression inhibitor project, dose response (AID 1915); assay type: functional, organism-based;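 also: potency for reduction of bacterial viability or growth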
Streptokinase A = biological target: T2, Streptokinase A (Streptococcus pyogenes serotype M1, UniProt P10520); experiment: viability-normalized secreted streptokinase activity reduction – plasminogen activation absorbance, OD405, dose response (AID 1914); assay type: functional, Streptococcus pyogenes M1 GAS;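 also: secreted streptokinase activity via plasminogen activation per viability signal from cell pellet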
T2 sequence (P10520 whole entry): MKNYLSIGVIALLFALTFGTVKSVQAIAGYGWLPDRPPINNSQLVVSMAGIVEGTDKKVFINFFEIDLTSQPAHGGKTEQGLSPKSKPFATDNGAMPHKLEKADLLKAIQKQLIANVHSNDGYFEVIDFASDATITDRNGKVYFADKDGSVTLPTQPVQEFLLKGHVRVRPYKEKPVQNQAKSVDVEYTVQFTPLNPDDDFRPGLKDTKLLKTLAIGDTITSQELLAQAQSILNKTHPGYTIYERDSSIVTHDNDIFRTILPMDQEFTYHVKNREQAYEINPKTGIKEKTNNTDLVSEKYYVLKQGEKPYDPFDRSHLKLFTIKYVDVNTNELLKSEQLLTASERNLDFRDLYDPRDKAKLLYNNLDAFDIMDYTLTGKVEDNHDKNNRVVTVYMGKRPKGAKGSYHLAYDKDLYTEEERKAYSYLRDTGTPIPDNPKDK

Paired box protein Pax-8 = Paired box protein Pax-8 (Homo sapiens, UniProt Q06710); experiment: PAX8 transcriptional activity inhibition in RMG-I – RMG-I cells, luciferase, cherry-pick, dose response (AID 687027); assay type: functional, cell-based;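 also: luciferase reporter driven by Pax8 target thyroperoxidase promoter measured by SteadyGlo luminescence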
Sequence of Paired box protein Pax-8 (Q06710 whole entry): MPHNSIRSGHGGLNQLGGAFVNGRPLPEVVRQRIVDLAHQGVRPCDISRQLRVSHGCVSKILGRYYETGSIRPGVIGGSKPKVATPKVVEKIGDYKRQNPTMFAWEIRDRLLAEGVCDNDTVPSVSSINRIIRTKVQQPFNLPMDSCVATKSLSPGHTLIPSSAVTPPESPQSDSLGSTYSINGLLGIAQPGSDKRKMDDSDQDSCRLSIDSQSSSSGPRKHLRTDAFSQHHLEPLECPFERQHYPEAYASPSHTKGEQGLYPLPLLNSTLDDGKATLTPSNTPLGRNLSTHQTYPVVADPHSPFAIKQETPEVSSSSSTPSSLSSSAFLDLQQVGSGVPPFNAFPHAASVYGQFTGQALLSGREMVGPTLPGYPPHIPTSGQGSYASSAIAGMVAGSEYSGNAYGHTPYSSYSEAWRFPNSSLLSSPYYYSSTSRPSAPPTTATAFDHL

Sequence of Cytochrome P450 2D6 (P10635 whole entry): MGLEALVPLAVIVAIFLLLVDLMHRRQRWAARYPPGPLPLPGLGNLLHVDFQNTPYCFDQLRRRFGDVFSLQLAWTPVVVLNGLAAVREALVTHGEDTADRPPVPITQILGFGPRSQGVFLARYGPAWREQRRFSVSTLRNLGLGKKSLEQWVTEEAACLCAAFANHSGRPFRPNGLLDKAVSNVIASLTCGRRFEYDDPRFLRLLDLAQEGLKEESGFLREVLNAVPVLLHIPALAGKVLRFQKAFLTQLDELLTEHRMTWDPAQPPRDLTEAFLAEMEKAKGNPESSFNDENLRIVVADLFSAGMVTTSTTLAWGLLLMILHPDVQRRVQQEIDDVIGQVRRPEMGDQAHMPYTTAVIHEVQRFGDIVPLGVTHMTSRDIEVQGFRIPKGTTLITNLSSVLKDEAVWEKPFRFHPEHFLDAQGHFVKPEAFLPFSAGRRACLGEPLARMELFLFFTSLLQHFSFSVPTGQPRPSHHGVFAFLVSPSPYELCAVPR

C/C(CCN1CCCCc2nc(C)c(C)cc21)=N\O[C@@H](C)CN1CCCCc2nc(C)c(C)cc21
AC50 (Cytochrome P450 2D6): 5.01 µM (inconclusive)

CN(C)c1nc(-c2ccoc2)nc2ccccc12
AC50 (Cytochrome P450 2C19; read-out: AC50): 31.6 µM (inconclusive)
AC50 (Cytochrome P450 3A4): 25.1 µM (inconclusive)
AC50 (Cytochrome P450 2D6): 39.8 µM (inconclusive)

Cc1ccc(CSCc2ccc(C(=O)NCCC(C)C)o2)cc1
CC50 [1]: 20.2 µM (active)

CC1CCc2c(sc3ncnc(NCCCOC(C)C)c23)C1 (stereo unspecified)
CC50 [2]: > 40 µM (active)

Cc1cc(Nc2ccc(Br)cc2)nc(-c2ccccc2O)n1
CC50 [1]: 31.9 µM (active)

CCOc1ccc(-n2c(SCC(=O)Nc3nccs3)nc3c(c2=O)SCC3)cc1
EC50 [3]: 19.1 µM (active)
EC50 [4]: 11.7 µM (active)
EC50 [5]: 12.8 µM (active)

CCS(=O)(=O)c1ccc(OC)c(N=Nc2ccc(O)c3ncccc23)c1
AC50 (INS1): 8.44 µM (active)

CCCc1ccc(C(=O)NNc2cccc(C)c2)cc1
EC50 [6]: > 38 µM (not active)
EC50 [7]: 30.2 µM (active)

CCC(C)C1C(C#N)=C(N)Oc2[nH]nc(C)c21 (stereo unspecified)
EC50 [8]: 189 µM (active)

CC(=O)NCCNc1nc(-c2ccc(N(C)C)cc2)nc2ccccc12
AC50 (Cytochrome P450 3A4): 10 µM (inconclusive)
AC50 (Cytochrome P450 2D6): 20 µM (inconclusive)

COc1ccc(-c2nn(-c3ccccc3)cc2/C=C\C(=O)Nc2ccc(C(=O)O)cc2)cc1
CC50 [1]: 26.4 µM (active)

Oc1nc2c(-c3cccc(Br)c3)nnn2c2ccccc12
EC50 [9]: 0.258 µM (active)
EC50 (H4): 18.8 µM (active)

Fc1cccc(CCN2CCNC[C@H]2Cc2cccc3ccccc23)c1
CC50 [2]: 26.2 µM (active)

Cc1cc(C)cc(NC(=O)NCC(O)COc2ccc([N+](=O)[O-])cc2)c1 (stereo unspecified)
CC50 [1]: > 50 µM (active)

CSc1ccccc1OCc1cc(C(=O)N2CCc3c(Cl)cccc3C2)no1
AC50 (INS1): 7.1 µM (active)

COc1cc(OC)cc(N(C(=O)C2COc3ccccc3O2)C(C(=O)NC2CCCCC2)c2ccc(O)cc2)c1 (stereo unspecified)
EC50 [6]: 0.798 µM (inconclusive)
EC50 [7]: 94.7 µM (active)

COC(=O)c1cn(S(=O)(=O)c2ccccc2)c2ccccc12
EC50 [3]: > 120 µM (not active)
EC50 [4]: > 120 µM (not active)
EC50 [5]: > 120 µM (not active)

COc1cc(/C=C/c2nc(O)nc(O)c2[N+](=O)[O-])ccc1OCCC(C)C
CC50 [1]: 19.1 µM (active)
AC50 [10]: 5.94 µM (active)

Cc1ccc(C(=O)C[n+]2ccc(Cc3ccccc3)cc2)cc1
EC50 [3]: 13.7 µM (active)
EC50 [4]: 14.3 µM (active)
EC50 [5]: 10.5 µM (active)

CCOC(=O)N1CCN(C(=O)c2cccn3c(=O)c4cc(Cl)ccc4nc23)CC1
AC50 (Cytochrome P450 1A2): 25.1 µM (inconclusive)

NC(CC(=O)Nc1cc(C(F)(F)F)ccc1Cl)=NO
AC50 (Cytochrome P450 2C19): inconclusive
AC50 (Cytochrome P450 3A4): 3.98 µM (inconclusive)

Cc1ccc(C(NC(=O)NC(C)c2ccccc2)C(Cl)(Cl)Cl)cc1F (stereo unspecified)
EC50 [11]: 3.25 µM (active)
EC50 [3]: 18.7 µM (active)
EC50 (Streptococcus): 99.7 µM (active)
EC50 [4]: 12 µM (active)
EC50 (Streptokinase A): 7.32 µM (active)
EC50 [5]: > 120 µM (not active)

COc1ccc(COC(=O)N/N=C2/C[C@@H](O)[C@@H](O)[C@@H]3[C@H]4C(=O)N(c5ccc(F)cc5F)C(=O)[C@@H]4CC[C@H]23)cc1
AC50 (Cytochrome P450 3A4): 6.31 µM (inconclusive)

COCCCNC(=O)Cn1nnc(-c2ccc(NC(=O)c3cccnc3)cc2)n1
AC50 (INS1): 3.95 µM (active)

O=C1CCCN1c1ccc(S(=O)(=O)Oc2cccc(Cl)c2)cc1[N+](=O)[O-]
AC50 (Cytochrome P450 2D6): 1.78 µM (inconclusive)

CCCC1CCC(c2ccc(C(=O)NN)cc2)CC1 (stereo unspecified)
AC50 (INS1): 10.9 µM (active)

COc1cccc(NC(=O)CSc2nc3ccccc3cc2Cc2ccccc2)c1
AC50 (Cytochrome P450 1A2): 4.47 µM (inconclusive)

Cc1ccc2c(c1)N(C(=O)CCC(=O)N1CCN(c3cccc(C)c3C)CC1)CCO2
CC50 [1]: 5.57 µM (active)

CCOC(=O)c1[nH]c(C)c(C(=O)C2=C(O)C(=O)N(CCN3CCOCC3)C2c2cccs2)c1C (stereo unspecified)
AC50 (Cytochrome P450 3A4): 14.1 µM (inconclusive)

O=C(NCc1ccco1)Nc1cccs1
AC50 (Cytochrome P450 3A4): 20 µM (inconclusive)
AC50 (Cytochrome P450 2D6): 14.1 µM (inconclusive)

Oc1ncnc2c1sc1nc3c(c(-c4ccc(Cl)cc4)c12)CCC3
CC50 [1]: > 50 µM (active)

Cc1cccc(NC(=O)c2[nH]cnc2C(=O)NCC(=O)OC(C)(C)C)c1
CC50 [1]: > 50 µM (active)

O=C(Nc1nc(-c2cc(Cl)sc2Cl)cs1)c1cccs1
EC50 [11]: 14.2 µM (active)
CC50 [2]: 25.9 µM (active)
EC50 (Streptococcus): 18.1 µM (active)
EC50 (Streptokinase A): > 50 µM (not active)
AC50 [10]: 1.13 µM (active)

COCCSc1nnc(NC(=O)CCS(=O)(=O)c2ccccc2)s1
EC50 [6]: 3.97 µM (active)
EC50 [7]: > 150 µM (inactive)

CCOc1ccc(OCC)c(NC(=O)CSc2nc3ccccc3c(=O)n2C)c1
EC50 [3]: 71.4 µM (active)
EC50 [4]: 29.5 µM (active)
EC50 [5]: 69.6 µM (active)

CC(C)CCNC(=O)C(c1ccco1)N(Cc1ccc(F)cc1)C(=O)c1snc(C(N)=O)c1N (stereo unspecified)
EC50 [6]: > 38 µM (not active)
EC50 [7]: 26.5 µM (active)

CCOc1ncccc1C(=O)Nc1ccc(F)cc1
CC50 [1]: 46.3 µM (active)

C[C@@H](NC(=O)c1[nH]cnc1C(=O)N[C@@H](Cc1ccccc1)C(=O)OC(C)(C)C)c1ccccc1
AC50 (Paired box protein Pax-8): 5.32 µM (active)

Cc1ccc(S(=O)(=O)c2nc(Nc3nccs3)sc2Cl)cc1
CC50 [2]: > 40 µM (active)

COCCSc1nnc(NC(=O)C(C)(C)C)s1
AC50 (Cytochrome P450 1A2): 25.1 µM (inconclusive)

N=C(NOC(=O)C12CC3CC(CC(C3)C1)C2)c1ccccc1
EC50 [8]: 90.5 µM (active)

CC(C)[C@H](N)c1nnc(SCc2ccc(Cl)cc2)o1
AC50 (Cytochrome P450 2D6): 28.2 µM (inconclusive)

CCC(=O)c1ccc(OCC(O)CN2CCCCC2)cc1.Cl (stereo unspecified)
AC50 (Cytochrome P450 2C19): inconclusive
AC50 (Cytochrome P450 2D6): 39.8 µM (inconclusive)

CC1CCCC=CC2CC(OC(=O)CN(C)C)CC2C(O)C=CC(=O)O1 (stereo unspecified)
AC50 (Paired box protein Pax-8): < 0.26 µM (active)

CC(C)NC(=O)C(C)n1cccc1C(=O)c1ccccc1 (stereo unspecified)
AC50 (Cytochrome P450 3A4): 15.8 µM (inconclusive)

COc1ccc(C2C(C(=O)c3ccc(Cl)cc3)=C(O)C(=O)N2CCN2CCOCC2)c(OC)c1 (stereo unspecified)
AC50 (Cytochrome P450 2C19; read-out: AC50): 39.8 µM (inconclusive)
AC50 (Cytochrome P450 3A4): 20 µM (inconclusive)

COc1ccc(CN(C)C[C@H]2OCCCC[C@H](C)Oc3ccc(NC(=O)Nc4ccc(C(F)(F)F)cc4)cc3C(=O)N([C@H](C)CO)C[C@@H]2C)cc1
AC50 (Paired box protein Pax-8): 10.9 µM (active)

COc1cccc(/C=N/NC(=O)CCCC(=O)NC2CCCCC2)c1
EC50 [3]: > 120 µM (not active)
EC50 [4]: > 120 µM (not active)
EC50 [5]: 15.6 µM (active)

c1ccc2nc(-c3ccncc3)ccc2c1
CC50 [1]: 25.4 µM (active)

O=C(Nc1cnc2ccccc2c1)c1cccc(-n2cnnn2)c1
AC50 (Cytochrome P450 2D6): 7.94 µM (inconclusive)

COc1cc(OC)c2cc(-c3ccncc3)cnc2c1
AC50 (Cytochrome P450 2C19; read-out: AC50): 31.6 µM (inconclusive)
AC50 (Cytochrome P450 3A4): 0.316 µM (inconclusive)

CC1(C)C=Cc2c(ccc3c2OC[C@@H](c2ccc(O)cc2O)C3)O1 [GLABRIDIN]
CC50 [1]: 13.4 µM (active)
AC50 [10]: 6.05 µM (active)
